Holding throughout (assay type): physicochemical
The nature of data set [1]: Solubility of CBDA in mineral oil. The note with it: oil or lipid, under certain conditions.
A short description of data set [2]: Solubility in water.
Data set [3] is described as follows: Solubility in the amide-based surfactant DMDA (Met10u).
Data set [4] can be described thus: Thermal stability (decarboxylation) of CBDA. The note with it: in Met10u solution.

Converted amounts (≈) assume the structure as drawn.

Usually solubility stands for the dissolved amount per volume that the medium holds.

With `C=C(C)[C@@H]1CCC(C)=C[C@H]1c1c(O)cc(CCCCC)c(C(=O)O)c1O` [CBDA, Δ(9)-tetrahydrocannabidiolic acid], the solubility in data set [1] was approximately 6000 µg/mL (≈ 16.7 mM). For the same molecule, the “solubility of CBDA in water” value in data set [2] (temperature of 4 degrees Celsius or lower, pH 4 or lower) was “below 20 micrograms per milliliter”; in data set [2] (temperature of 70 degrees Celsius or higher, pH of 10 or higher) it was “over 20 milligrams per milliliter”. Moreover, the “solubility of CBDA in Met10u” value is given as 1% in data set [3] (at 0 C) and 100% in data set [3] (at 60 C). Also, the “solubility in DMDA” value in data set [3] (at 70 C) is recorded as “over 1000 mg/ml DMDA”. In addition, the “temperature at which CBDA begins to lose its carboxylic moiety (decarboxylation) and become CBD” value in data set [4] is recorded as “at least 130 C”.

The record behind these values is patent US12264296B2, “Compositions that contain lipophilic plant material and surfactant, and related methods” (priority 2020, dated 2025).
